According to patent US8580812B2, “Heteroaryl amide analogues as P2X7 antagonists” (H. Lundbeck A/S, priority 2007, dated 2013):
pIC50: −log10 of the molar value.

Each molecule was assayed against T1, P2X7 (Homo sapiens, UniProt Q99572) (assay: High Throughput P2X7 Calcium Mobilization Assay (Example 4A), antagonist activity). Details: SH-SY5Y cells, 50% decrease in fluorescence response of cells exposed to 80 μM BzATP.
T1 construct: host or cells: SH-SY5Y
T1 sequence (Q99572 1-595): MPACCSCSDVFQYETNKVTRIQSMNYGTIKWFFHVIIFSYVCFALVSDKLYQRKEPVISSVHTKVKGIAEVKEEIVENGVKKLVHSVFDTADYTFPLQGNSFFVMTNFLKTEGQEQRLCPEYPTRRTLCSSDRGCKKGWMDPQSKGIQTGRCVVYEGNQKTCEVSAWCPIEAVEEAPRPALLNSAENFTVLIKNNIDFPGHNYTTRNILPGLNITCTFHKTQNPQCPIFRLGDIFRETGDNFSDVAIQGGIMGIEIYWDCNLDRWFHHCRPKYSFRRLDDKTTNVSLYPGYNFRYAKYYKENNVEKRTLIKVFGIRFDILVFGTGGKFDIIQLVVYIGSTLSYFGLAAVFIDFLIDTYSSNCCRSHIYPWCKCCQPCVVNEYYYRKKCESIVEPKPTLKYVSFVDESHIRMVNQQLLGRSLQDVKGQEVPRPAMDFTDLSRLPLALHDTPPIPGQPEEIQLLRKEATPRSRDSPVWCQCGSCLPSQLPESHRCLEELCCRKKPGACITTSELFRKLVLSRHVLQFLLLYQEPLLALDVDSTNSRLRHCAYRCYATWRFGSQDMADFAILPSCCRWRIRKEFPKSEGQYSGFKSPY
Assay type: cell-based
Summary of the method: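 SH-SY5Y cells loaded with Fluo-4 AM were preincubated 1 h at room temperature with compound (typically 1–2500 nM) in sucrose/HEPES buffer, pH 7.4, then challenged with 80 μM BzATP (final, about EC50). Peak fluorescence over 2 min gave percent inhibition relative to agonist-only wells, and IC50 came from a Hill-equation fit.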

pIC50, ≥ 5.70:
CC(C)CC(CNC(=O)c1cccn2nc(C(=O)N3CC[C@@H](N)C3)cc12)c1ccc(C(F)(F)F)cc1 (stereo partly drawn) [Compound 80, 2-{[(3R)-3-aminopyrrolidin-1-yl]carbonyl}-N-{4-methyl-2-[4-(trifluoromethyl)phenyl]pentyl}pyrazolo[1,5-a]pyridine-4-carboxamide]
O=C(NC1CCS(=O)(=O)C1)c1cc2c(C(=O)NCC34CC5CC(CC(C5)C3)C4)cccn2n1 (stereo not drawn) [Compound 82, 4-N-(adamantan-1-ylmethyl)-2-N-(1,1-dioxidotetrahydrothio-phen-3-yl)pyrazolo[1,5-a]pyridine-2,4-dicarboxamide]
O=C(NCC1(c2ccc(Cl)cc2)CCCCC1)c1cccn2nc(C(=O)N3CCn4cncc4C3)cc12 [Compound 83, N-{[1-(4-chlorophenyl)cyclohex-yl]methyl}-2-(5,6-dihydroimidazo[1,5-a]pyrazin-7(8H)-ylcarbonyl)pyrazolo [1,5-a]pyridine-4-carboxamide]
O=C(NCC1(c2ccc(Cl)cc2)CCCCC1)c1cccn2nc(C(=O)N3CCOCC3)cc12 [Compound 84, N-{[1-(4-chlorophenyl)cyclohex-yl]methyl}-2-(morpholin-4-ylcarbonyl)pyrazolo [1,5-a]pyridine-4-carboxamide]
CN(CCF)C(=O)c1cc2c(C(=O)NCC3(c4ccc(Cl)cc4)CCCCC3)cccn2n1 [Compound 85, 4-N-{[1-(4-chlorophenyl)cyclohex-yl]methyl}-2-N-(2-fluoroethyl)-2-N-methylpyrazolo[1,5-a]pyridine-2,4-dicarboxamide]
CC(C)CC(CNC(=O)c1cccn2nc(C(=O)N(C)CCF)cc12)c1ccc(C(F)(F)F)cc1 (stereo not drawn) [Compound 86, 2-N-(2-fluoroethyl)-2-N-methyl-4-N-{4-methyl-2-[4-(trifluoromethyl)phenyl]pentyl}pyrazolo[1,5-a]pyridine-2,4-dicarboxamide]
CC(C)CC(CNC(=O)c1cccn2nc(C(=O)N3CCOCC3)cc12)c1ccc(C(F)(F)F)cc1 (stereo not drawn) [Compound 87, N-{4-methyl-2-[4-(trifluoromethyl)phenyl]pentyl}-2-(morpholin-4-ylcarbonyl)pyrazolo [1,5-a]pyridine-4-carboxamide]
CC(C)CC(CNC(=O)c1cccn2nc(C(=O)N3CCn4cncc4C3)cc12)c1ccc(C(F)(F)F)cc1 (stereo not drawn) [Compound 88, 2-(5,6-dihydroimidazo[1,5-a]pyrazin-7(8H)-ylcarbonyl)-N-{4-methyl-2-[4-(trifluoromethyl)phenyl]pentyl}pyrazolo[1,5-a]pyridine-4-carboxamide]
O=C(NCC12CC3CC(CC(C3)C1)C2)c1cccn2nc(CC3=NCCN3)cc12 [Compound 89, N-(adamantan-1-ylmethyl)-2-(4,5-dihydro-1H-imidazol-2-ylmethyl)pyrazolo[1,5-a]pyridine-4-carboxamide]
N[C@@H]1CCN(C(=O)c2cc3c(C(=O)NCC4(c5ccc(Cl)cc5)CCCCC4)cccn3n2)C1 [Compound 90, 2-{[(3R)-3-aminopyrrolidin-1-yl]carbonyl}-N-{[1-(4-chlorophenyl)cyclohex-yl]methyl}pyrazolo[1,5-a]pyridine-4-carboxamide]
CC(C)CC(CNC(=O)c1cccn2nc(C(=O)N3CCOCC3)cc12)c1ccc(Cl)cc1 (stereo not drawn) [Compound 91, N-[2-(4-chlorophenyl)-4-methylpentyl]-2-(morpholin-4-ylcarbonyl)pyrazolo [1,5-a]pyridine-4-carboxamide]
CC(C)CC(CNC(=O)c1cccn2nc(C(=O)N(C)CCF)cc12)c1ccc(Cl)cc1 (stereo not drawn) [Compound 92, Pyrazolo[1,5-a]pyridine-2,4-dicarboxylic acid 4-{[2-(4-chloro-phenyl)-4-methyl-pentyl]-amide} 2-[(2-fluoro-ethyl)-methyl-amide]]
CN(CCF)C(=O)c1cc2c(C(=O)NCC3(c4ccc(C(F)(F)F)cc4)CCCCC3)cccn2n1 [Compound 93, Pyrazolo[1,5-a]pyridine-2,4-dicarboxylic acid 2-[(2-fluoro-ethyl)-methyl-amide]-4-{[1-(4-trifluoromethyl-phenyl)-cyclohexylmethyl]-amide}]
O=C(NCC1(c2ccc(C(F)(F)F)cc2)CCCCC1)c1cccn2nc(C(=O)N3CCOCC3)cc12 [Compound 94, 2-(morpholin-4-ylcarbonyl)-N-({1-[4-(trifluoromethyl)phenyl]cyclohexyl}methyl) pyrazolo[1,5-a]pyridine-4-carboxamide]
O=C(NCC12CC3CC(CC(C3)C1)C2)c1cccn2nc(CCC3=NCCN3)cc12 [Compound 95, N-(adamantan-1-ylmethyl)-2-[2-(4,5-dihydro-1H-imidazol-2-yl)ethyl]pyrazolo[1,5-a]pyridine-4-carboxamide]
O=C(CC12CC3CC(CC(C3)C1)C2)Nc1cccn2nc(C(=O)N3CCOCC3)cc12 [Compound 96, 2-adamantan-1-yl-N-[2-(morpholin-4-ylcarbonyl)pyrazolo [1,5-a]pyridin-4-yl]acetamide]
O=C(CC12CC3CC(CC(C3)C1)C2)Nc1cccn2nc(C(=O)N3CCn4cncc4C3)cc12 [Compound 97, 2-adamantan-1-yl-N-[2-(5,6-dihydroimidazo[1,5-a]pyrazin-7(8H)-ylcarbonyl)pyrazolo [1,5-a]pyridin-4-yl]acetamide]
CN(CCF)C(=O)c1cc2c(NC(=O)CC34CC5CC(CC(C5)C3)C4)cccn2n1 [Compound 98, 4-[(adamantan-1-ylacetyl)amino]-N-(2-fluoroethyl)-N-methylpyrazolo[1,5-a]pyridine-2-carboxamide]
N[C@@H]1CCN(C(=O)c2cc3c(NC(=O)CC45CC6CC(CC(C6)C4)C5)cccn3n2)C1 [Compound 99, 2-adamantan-1-yl-N-(2-{[(3R)-3-aminopyrrolidin-1-yl]carbonyl}pyrazolo [1,5-a]pyridin-4-yl)acetamide]
CC(C)CC(CNC(=O)c1cccn2nc(C(=O)N3CCOC(C)(C)C3)cc12)c1ccc(C(F)(F)F)cc1 (stereo not drawn) [Compound 101, 2-[(2,2-dimethylmorpholin-4-yl)carbonyl]-N-{4-methyl-2-[4-(trifluoromethyl)phenyl]pentyl}pyrazolo[1,5-a]pyridine-4-carboxamide]
O=C(NCC12CC3CC(CC(C3)C1)C2)c1cccn2nc(C(Cc3ccccc3)C(=O)O)cc12 (stereo not drawn) [Compound 103, 2-{4-[(adamantan-1-ylmethyl)carbamoyl]pyrazolo[1,5-a]pyridin-2-yl}-3-phenylpropanoic acid]
O=C(NCC1(c2ccc(Cl)cc2)CCCCC1)c1cccn2nc(C(Cc3ccccc3)C(=O)O)cc12 (stereo not drawn) [Compound 104, 2-[4-({[1-(4-chlorophenyl)cyclohex-yl]methyl}carbamoyl)pyrazolo[1,5-a]pyridin-2-yl]-3-phenyl propanoic acid]
CC(CC(=O)O)c1cc2c(C(=O)NCC34CC5CC(CC(C5)C3)C4)cccn2n1 (stereo not drawn) [Compound 105, 3-{4-[(adamantan-1-ylmethyl)carbamoyl]pyrazolo[1,5-a]pyridin-2-yl}butanoic acid]
O=C(O)CC(c1ccccc1)c1cc2c(C(=O)NCC34CC5CC(CC(C5)C3)C4)cccn2n1 (stereo not drawn) [Compound 106, 3-{4-[(adamantan-1-ylmethyl)carbamoyl]pyrazolo[1,5-a]pyridin-2-yl}-3-phenylpropanoic acid]
